Experimental data published in ChEMBL document CHEMBL1759901 (Bioorg Med Chem Lett, 2011).
Calls of active or inactive are those of the source. The rule behind the calls is not given here.

What was measured:
[1] = Lipophilicity, log D of the compound; format: physicochemical; conditions: octanol/water
[2] = molecular target: Voltage-gated inwardly rectifying potassium channel KCNH2 (Homo sapiens, UniProt Q12809); assay: Inhibition of human ERG
[3] = molecular target: Sodium-dependent serotonin transporter (Homo sapiens, UniProt P31645); assay: Inhibition of serotonin transporter
Sequence of Sodium-dependent serotonin transporter (P31645 whole entry): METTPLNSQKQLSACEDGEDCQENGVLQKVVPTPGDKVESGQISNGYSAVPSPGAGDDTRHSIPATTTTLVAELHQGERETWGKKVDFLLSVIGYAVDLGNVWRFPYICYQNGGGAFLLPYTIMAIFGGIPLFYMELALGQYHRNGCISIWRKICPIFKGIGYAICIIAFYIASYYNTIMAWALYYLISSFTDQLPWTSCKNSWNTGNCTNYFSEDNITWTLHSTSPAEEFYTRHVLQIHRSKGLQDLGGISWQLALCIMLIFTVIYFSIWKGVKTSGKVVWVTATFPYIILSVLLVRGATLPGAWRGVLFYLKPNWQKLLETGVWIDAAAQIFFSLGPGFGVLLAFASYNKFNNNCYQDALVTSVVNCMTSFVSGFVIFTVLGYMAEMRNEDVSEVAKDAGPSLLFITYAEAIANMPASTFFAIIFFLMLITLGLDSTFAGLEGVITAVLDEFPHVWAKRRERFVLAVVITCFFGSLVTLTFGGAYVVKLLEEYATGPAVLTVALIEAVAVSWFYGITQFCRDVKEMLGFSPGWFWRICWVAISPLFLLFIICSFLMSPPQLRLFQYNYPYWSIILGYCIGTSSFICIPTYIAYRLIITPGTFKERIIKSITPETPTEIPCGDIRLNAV

Cytochrome P450 2D6 = Cytochrome P450 2D6 (Homo sapiens, UniProt P10635); assay: Inhibition of CYP2D6; format: ADME
Sequence of Cytochrome P450 2D6 (P10635 whole entry): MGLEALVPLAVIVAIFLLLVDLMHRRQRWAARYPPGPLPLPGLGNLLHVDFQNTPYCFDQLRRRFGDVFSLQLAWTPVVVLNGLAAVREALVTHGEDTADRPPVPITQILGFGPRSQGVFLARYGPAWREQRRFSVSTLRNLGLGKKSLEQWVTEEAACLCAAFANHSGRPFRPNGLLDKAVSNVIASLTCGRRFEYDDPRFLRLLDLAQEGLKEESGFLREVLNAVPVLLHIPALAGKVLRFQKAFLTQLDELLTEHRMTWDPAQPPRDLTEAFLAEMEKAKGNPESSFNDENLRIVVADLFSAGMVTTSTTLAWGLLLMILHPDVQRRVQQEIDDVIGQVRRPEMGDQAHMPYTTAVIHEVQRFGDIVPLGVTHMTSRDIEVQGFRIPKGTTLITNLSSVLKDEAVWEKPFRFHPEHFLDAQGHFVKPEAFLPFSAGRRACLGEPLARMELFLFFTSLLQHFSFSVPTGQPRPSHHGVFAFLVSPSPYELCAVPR

[4] = molecular target: T1, Nitric oxide synthase, inducible (Homo sapiens, UniProt P35228); assay: Inhibition of human recombinant iNOS
T1 sequence (P35228 whole entry): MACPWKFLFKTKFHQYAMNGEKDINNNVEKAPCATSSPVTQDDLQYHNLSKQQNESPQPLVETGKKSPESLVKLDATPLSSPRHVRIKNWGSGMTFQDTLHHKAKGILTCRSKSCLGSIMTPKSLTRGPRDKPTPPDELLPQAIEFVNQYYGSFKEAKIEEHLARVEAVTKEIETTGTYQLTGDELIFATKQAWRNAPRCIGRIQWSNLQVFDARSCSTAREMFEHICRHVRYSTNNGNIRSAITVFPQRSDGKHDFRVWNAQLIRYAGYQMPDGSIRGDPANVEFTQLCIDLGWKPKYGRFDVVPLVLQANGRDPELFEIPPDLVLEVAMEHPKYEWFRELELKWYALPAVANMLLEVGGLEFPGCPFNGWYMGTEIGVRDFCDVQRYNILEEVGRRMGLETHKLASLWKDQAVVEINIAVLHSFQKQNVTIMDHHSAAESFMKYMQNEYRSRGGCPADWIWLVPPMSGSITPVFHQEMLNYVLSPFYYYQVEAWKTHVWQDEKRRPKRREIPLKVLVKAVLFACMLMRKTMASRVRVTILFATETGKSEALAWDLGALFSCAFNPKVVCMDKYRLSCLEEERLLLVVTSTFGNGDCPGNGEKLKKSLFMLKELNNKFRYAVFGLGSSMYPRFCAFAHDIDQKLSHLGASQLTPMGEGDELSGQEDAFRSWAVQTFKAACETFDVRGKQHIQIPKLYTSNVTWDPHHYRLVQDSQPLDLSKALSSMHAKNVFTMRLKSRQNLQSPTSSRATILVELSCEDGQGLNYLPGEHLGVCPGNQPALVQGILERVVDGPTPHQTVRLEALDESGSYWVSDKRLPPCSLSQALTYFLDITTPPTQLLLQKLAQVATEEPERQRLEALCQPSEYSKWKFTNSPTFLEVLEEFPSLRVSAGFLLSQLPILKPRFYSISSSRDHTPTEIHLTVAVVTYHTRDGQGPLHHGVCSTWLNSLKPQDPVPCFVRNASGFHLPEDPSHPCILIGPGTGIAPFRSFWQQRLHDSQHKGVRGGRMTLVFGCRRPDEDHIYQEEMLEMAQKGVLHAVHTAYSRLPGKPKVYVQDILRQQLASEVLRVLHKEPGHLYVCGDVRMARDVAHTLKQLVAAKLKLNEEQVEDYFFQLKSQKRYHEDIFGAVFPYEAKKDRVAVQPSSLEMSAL

Homo sapiens = organism: Homo sapiens; assay: Selectivity ratio of IC50 for human recombinant iNOS to IC50 for human recombinant eNOS
[5] = molecular target: T1, Nitric oxide synthase, inducible; assay: Inhibition of iNOS in intact human DLD1 cells assessed as nitric oxide production; format: cell-based, DLD-1
[6] = molecular target: Sodium-dependent noradrenaline transporter (Homo sapiens, UniProt P23975); assay: Inhibition of NET
Sequence of Sodium-dependent noradrenaline transporter (P23975 whole entry): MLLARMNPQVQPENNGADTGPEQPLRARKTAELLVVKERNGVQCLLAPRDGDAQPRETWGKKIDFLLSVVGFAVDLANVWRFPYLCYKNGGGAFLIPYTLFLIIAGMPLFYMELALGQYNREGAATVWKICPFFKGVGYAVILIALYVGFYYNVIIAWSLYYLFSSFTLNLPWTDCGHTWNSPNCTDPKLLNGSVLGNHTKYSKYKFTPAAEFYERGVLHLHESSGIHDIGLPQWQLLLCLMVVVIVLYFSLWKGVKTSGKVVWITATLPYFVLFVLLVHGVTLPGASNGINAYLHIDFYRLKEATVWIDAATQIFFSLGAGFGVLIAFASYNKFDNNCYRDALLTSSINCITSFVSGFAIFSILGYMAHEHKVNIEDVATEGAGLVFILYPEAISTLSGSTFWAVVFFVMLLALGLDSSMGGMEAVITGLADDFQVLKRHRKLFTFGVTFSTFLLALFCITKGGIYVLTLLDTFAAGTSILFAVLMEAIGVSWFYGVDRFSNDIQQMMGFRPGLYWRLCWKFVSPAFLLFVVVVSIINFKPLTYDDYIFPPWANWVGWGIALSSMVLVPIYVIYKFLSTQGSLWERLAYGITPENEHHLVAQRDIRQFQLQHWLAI

[7] = Volume of distribution at steady state in iv dosed rat; format: ADME, organism-based; conditions: in vivo, read-out: Vdss
[8] = Half life in iv dosed rat; format: ADME, organism-based; conditions: in vivo
Rattus norvegicus [9] = assay: Analgesic activity in Dark Agouti rat collagen-induced arthritis model at 75 umol/kg bid; format: functional, organism-based
Rattus norvegicus [10] = assay: Analgesic activity in Dark Agouti rat collagen-induced arthritis model assessed as reduction in inflammation at 75 umol/kg bid by histological analysis; format: functional, organism-based
Hepatocyte [11] = assay: Metabolic stability in human hepatocytes assessed as per 10^6 cells; format: ADME, cell-based
Hepatocyte [12] = assay: Metabolic stability in rat hepatocytes assessed as per 10^6 cells; format: ADME, cell-based
Rattus norvegicus [13] = assay: Analgesic activity in Dark Agouti rat collagen-induced arthritis model assessed as reduction in erosion scores at 75 umol/kg bid by histological analysis; format: functional, organism-based
[14] = Metabolic stability in human microsomes assessed as per mg of tissue; format: ADME, Microsome
[15] = Oral bioavailability in rat; format: ADME, organism-based; conditions: in vivo
[16] = Clearance in iv dosed rat; format: ADME, organism-based; conditions: in vivo

Sequence of Voltage-gated inwardly rectifying potassium channel KCNH2 (Q12809 whole entry): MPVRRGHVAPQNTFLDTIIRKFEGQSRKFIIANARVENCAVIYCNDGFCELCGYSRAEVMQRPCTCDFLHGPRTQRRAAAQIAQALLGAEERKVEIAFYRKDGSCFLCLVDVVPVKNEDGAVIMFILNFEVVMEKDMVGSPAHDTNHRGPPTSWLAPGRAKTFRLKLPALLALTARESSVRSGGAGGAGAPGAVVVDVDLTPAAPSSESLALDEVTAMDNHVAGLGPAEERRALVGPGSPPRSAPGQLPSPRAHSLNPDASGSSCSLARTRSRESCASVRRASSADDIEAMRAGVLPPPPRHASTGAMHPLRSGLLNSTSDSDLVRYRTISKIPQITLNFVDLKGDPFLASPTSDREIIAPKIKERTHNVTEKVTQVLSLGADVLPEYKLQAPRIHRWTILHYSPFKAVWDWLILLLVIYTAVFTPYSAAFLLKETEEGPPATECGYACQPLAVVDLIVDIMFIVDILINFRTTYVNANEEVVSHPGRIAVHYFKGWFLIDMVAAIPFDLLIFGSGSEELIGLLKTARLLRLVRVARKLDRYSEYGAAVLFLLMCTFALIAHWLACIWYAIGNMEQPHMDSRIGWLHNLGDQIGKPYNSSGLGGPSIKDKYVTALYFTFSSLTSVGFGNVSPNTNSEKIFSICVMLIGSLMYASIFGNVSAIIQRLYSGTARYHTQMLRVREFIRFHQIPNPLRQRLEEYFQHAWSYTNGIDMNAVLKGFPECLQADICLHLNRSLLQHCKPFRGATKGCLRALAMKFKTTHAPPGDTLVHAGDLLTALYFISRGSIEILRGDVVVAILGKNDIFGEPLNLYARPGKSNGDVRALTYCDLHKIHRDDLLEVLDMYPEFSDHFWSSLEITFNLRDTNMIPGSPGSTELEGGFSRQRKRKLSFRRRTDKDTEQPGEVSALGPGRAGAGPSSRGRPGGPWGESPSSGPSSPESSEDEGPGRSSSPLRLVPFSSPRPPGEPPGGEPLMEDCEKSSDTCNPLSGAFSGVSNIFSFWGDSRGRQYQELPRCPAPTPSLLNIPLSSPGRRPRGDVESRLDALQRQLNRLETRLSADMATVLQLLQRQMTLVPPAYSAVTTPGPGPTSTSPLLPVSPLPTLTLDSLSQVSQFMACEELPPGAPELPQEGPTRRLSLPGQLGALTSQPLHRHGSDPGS

logD [1]	IC50 [4] [nM]	Ratio IC50 (Homo sapiens)	IC50 ([3]; read-out: IC50) [nM]	IC50 (Cytochrome P450 2D6; read-out: IC50) [nM]	IC50 ([5]; read-out: IC50) [nM]	IC50 ([6]; read-out: IC50) [nM]	Compound	IC50 [2]	other results
0.9	960	100					N#Cc1cc(Cl)ccc1O[C@H](CCN)c1ccccc1.O=C(O)/C=C/C(=O)O	Not Active	IC50 [3]: Not Active; IC50 (Cytochrome P450 2D6): Not Active; IC50 ([5]; dld-1): Not Active; IC50 [6]: Not Active
	790	12					Cc1ccnc(NCc2ccccc2)c1		
	1900	> 53					NCC(Oc1cc(Cl)ccc1Cl)c1ccccc1 (stereo not drawn)	Not Active	IC50 [3]: Not Active; IC50 (Cytochrome P450 2D6): Not Active; IC50 ([5]; dld-1): Not Active; IC50 [6]: Not Active
0.8	4	> 10000	2100	400	900	15000	N#Cc1ccc(Cl)cc1O[C@H](CCN)c1ccccc1.O=C(O)C(=O)O	Not Active	
1.3	71	1400	10000	1600	2700	28000	CNCC[C@@H](Oc1cc(C(F)(F)F)ccc1C#N)c1ccccc1.Cl	Not Active	
0.8	6	> 10000	4400	340	700	16000	N#Cc1cc(F)c(Cl)cc1O[C@H](CCN)c1ccccc1.O=C(O)C(=O)O		Vd [7]: 13 L/kg; half-life [8]: 4.3 h; Activity (Rattus norvegicus [9]): Active; Activity (Rattus norvegicus [10]): Active; IC50 ([2]; read-out: IC50): > 10000 nM; Stability (Hepatocyte [11]): < 1 µL/min; Stability (Hepatocyte [12]): 8.9 µL/min; Activity (Rattus norvegicus [13]): Active; Stability [14]: 6 µL/min; bioavailability [15]: 57%; clearance [16]: 49 mL/min/kg
0.4	51	170	44000	400	3600	7100	CCC(CCNC)Oc1cc(Cl)ccc1C#N.Cl (racemic)	Not Active	
0.7	4	> 10000	2600	5000	600	7400	Cc1ccc(C#N)c(S[C@H](CCN)c2ccccc2)n1.O=C(O)/C=C/C(=O)O	Not Active	
0.79							N#Cc1ccc(C(=O)N2CCC3(CC2)N=C(N)c2c(F)ccc(F)c2N3)cn1		Vd [7]: 4.5 L/kg; half-life [8]: 1.1 h; IC50 ([2]; read-out: IC50): 100 nM; IC50 [3]: Not Active; IC50 (Cytochrome P450 2D6): Not Active; Stability (Hepatocyte [11]): < 3 µL/min; Stability (Hepatocyte [12]): 5 µL/min; Stability [14]: Unstable; bioavailability [15]: 75%; clearance [16]: 57 mL/min/kg; IC50 [6]: Not Active
	4		6700	4100	[…]	17000	N#Cc1ccc(Cl)cc1S[C@H](CCN)c1ccccc1.O=C(O)/C=C/C(=O)O	Not Active	
0.9	110		5700	300	9500	12000	CNCC[C@@H](Oc1cc(OC)ccc1C#N)c1ccccc1.O=C(O)C(=O)O	Not Active	
-0.5	5.4		70000	> 14000	720	> 100000	N#Cc1ccc(C(F)(F)F)nc1O[C@H](CCN)c1ccno1.O=C(O)C(=O)O		Vd [7]: 3.4 L/kg; IC50 ([2]; read-out: IC50): > 10000 nM; bioavailability [15]: 49%
	22	> 4500			8700		CNCC[C@@H](Oc1cc(Cl)ccc1Cl)c1ccccc1.O=C(O)/C=C/C(=O)O	Not Active	IC50 (Cytochrome P450 2D6): Not Active
1.7	9		4500	1000	700	500	CNCC[C@@H](Oc1cc(Cl)ccc1C#N)c1ccccc1.Cl		Vd [7]: 6.6 L/kg; half-life [8]: 1.3 h; Stability (Hepatocyte [11]): 1.4 µL/min; Stability (Hepatocyte [12]): 54 µL/min; Stability [14]: 4 µL/min; clearance [16]: 94 mL/min/kg
